Molecular target: T1, porcine pancreatic elastase (Sus scrofa, UniProt P00772)
T1 construct: purchased EPC (Elastin Products Company) EC134
Assay: Inhibition of porcine pancreatic elastase
Type: biochemical
Details: elastase stock 75 μg/mL (5 μL), Tris-HCl pH 8.0; compound 1 μL in DMSO; preincubated 15 min at room temperature; substrate 2 mM N-succinyl-Ala-Ala-Ala-p-nitroanilide solution (15 μL); absorbance 405 nm every 30 s, initial slope vs uninhibited; triplicate
Protocol: A stock solution of porcine pancreatic elastase (Elastase-high purity; EPC, EC134) was prepared at a concentration of 75 μg/mL in Tris-HCl (pH 8.0). Aliquots of test compounds (1 μL, DMSO) were preincubated with 79 μL Tris-HCl (pH 8.0) and 5 μL elastase stock for 15 min at room temperature in a microtiter plate. After this time, 15 μL substrate solution was added (2 mM N-succinyl-Ala-Ala-Ala-p-nitroanilide in Tris-HCl, pH 8.0) to each well, and the reaction was followed by measuring the absorbance at 405 nm every 30 s. Enzyme activity was determined by calculating the initial slope of each progress curve, expressed as a percentage of the slope of the uninhibited reaction.

T1 sequence (P00772 27-266): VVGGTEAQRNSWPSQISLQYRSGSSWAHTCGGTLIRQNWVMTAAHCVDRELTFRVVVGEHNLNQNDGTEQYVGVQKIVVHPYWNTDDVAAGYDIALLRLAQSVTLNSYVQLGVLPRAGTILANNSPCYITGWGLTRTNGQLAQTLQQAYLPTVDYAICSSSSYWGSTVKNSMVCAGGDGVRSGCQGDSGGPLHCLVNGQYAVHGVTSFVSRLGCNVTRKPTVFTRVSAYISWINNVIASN

Q: For `C/C=C1\NC(=O)[C@@H](NC(=O)[C@@H](NC(=O)[C@H](C)NC(C)=O)C(C)C)[C@@H](C)OC(=O)[C@H](C(C)C)NC(=O)[C@H](Cc2ccc(O)cc2)N(C)C(=O)[C@H](Cc2ccccc2)N2C(=O)[C@H](CC[C@H]2O)NC1=O` [Compound 1, Lyngbyastatin 8], which IC50 is on record?
A: Its IC50 is 123 ± 2 nM.

Q: For `C/C=C1\NC(=O)[C@@H](NC(=O)[C@@H](NC(=O)[C@H](C)NC(=O)CCC)C(C)C)[C@@H](C)OC(=O)[C@H](C(C)C)NC(=O)[C@H](Cc2ccc(O)cc2)N(C)C(=O)[C@H](Cc2ccccc2)N2C(=O)[C@H](CC[C@H]2O)NC1=O` [Compound 2, Lyngbyastatin 9], which IC50 is on record?
A: Its IC50 is 210 ± 10 nM.

Q: `C/C=C1\NC(=O)[C@@H](NC(=O)[C@@H](NC(=O)[C@H](C)NC(=O)CCC)C(C)C)[C@@H](C)OC(=O)[C@H](C(C)C)NC(=O)[C@H](Cc2ccc(O)c(Br)c2)N(C)C(=O)[C@H](Cc2ccccc2)N2C(=O)[C@H](CC[C@H]2O)NC1=O` [Compound 3, Lyngbyastatin 10] was tested. Which IC50 did it give?
A: The IC50 was 120 ± 16 nM.

— paper PMC2810234, “Lyngbyastatins 8–10, Elastase Inhibitors with Cyclic Depsipeptide Scaffolds Isolated from the Marine Cyanobacterium Lyngbya semiplena” (Marine Drugs, 2009)
